Among the data in patent publication US7737142B2, “(Thio) carbamoyl-cyclohexane derivatives as D3/D2 receptor antagonists” (Richter Gedeon Vegyeszeti Gyar Rt., priority 2003, dated 2010) are IC50 and melting point values, retold here.

Some results are limits rather than exact numbers.

For data set [1], the target named is T1, rat recombinant D3 receptors (expressed in Sf9 cells) (Rattus norvegicus, UniProt P19020).
T1 construct: purchased Packard BioScience, BioSignal Packard Inc. 6110139; host or cells: Sf9 cells
Description: D3 receptor binding ([3H]-spiperone). Particulars: [3H]-spiperone 0.85 nM, read-out: D3 IC-50.

Data set [2] concerns the target Alpha-1 receptor (rat brain cortical membrane preparation). Nature of the data set: Alpha-1 receptor binding ([3H]-prasosin). Particulars: rat brain cortical membranes, [3H]-prasosin 0.5 nM; read-out: Alfa-1 IC-50.
Description: The non-specific binding was determined in the presence of 10 μM phentolamine.
For data set [3], the target named is T2, D2 receptor (rat brain striatal membrane preparation) (Rattus norvegicus, UniProt P61169).
T2 construct: on rat brain striatal membrane preparation; from tissue; host or cells: rat brain striatum membranes
Description: D2 receptor binding ([3H]-spiperone). Particulars: rat brain striatal membranes, [3H]-spiperone 0.6 nM; read-out: D2 IC-50.
Description: The non-specific binding was determined in the presence of 1 μM (+)-butaclamol.

T1 sequence (P19020 whole entry): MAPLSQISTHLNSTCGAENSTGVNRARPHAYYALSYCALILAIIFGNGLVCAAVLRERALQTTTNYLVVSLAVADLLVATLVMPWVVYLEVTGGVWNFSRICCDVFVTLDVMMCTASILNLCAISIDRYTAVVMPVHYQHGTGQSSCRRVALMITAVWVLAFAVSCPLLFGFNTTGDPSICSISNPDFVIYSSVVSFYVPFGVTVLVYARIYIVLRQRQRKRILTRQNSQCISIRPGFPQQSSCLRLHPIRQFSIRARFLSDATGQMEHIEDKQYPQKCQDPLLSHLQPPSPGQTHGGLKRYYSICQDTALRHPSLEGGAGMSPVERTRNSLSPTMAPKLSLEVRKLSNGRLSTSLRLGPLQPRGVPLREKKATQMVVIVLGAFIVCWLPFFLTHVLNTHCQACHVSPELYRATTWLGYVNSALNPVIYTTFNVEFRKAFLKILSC
T2 sequence (P61169 whole entry): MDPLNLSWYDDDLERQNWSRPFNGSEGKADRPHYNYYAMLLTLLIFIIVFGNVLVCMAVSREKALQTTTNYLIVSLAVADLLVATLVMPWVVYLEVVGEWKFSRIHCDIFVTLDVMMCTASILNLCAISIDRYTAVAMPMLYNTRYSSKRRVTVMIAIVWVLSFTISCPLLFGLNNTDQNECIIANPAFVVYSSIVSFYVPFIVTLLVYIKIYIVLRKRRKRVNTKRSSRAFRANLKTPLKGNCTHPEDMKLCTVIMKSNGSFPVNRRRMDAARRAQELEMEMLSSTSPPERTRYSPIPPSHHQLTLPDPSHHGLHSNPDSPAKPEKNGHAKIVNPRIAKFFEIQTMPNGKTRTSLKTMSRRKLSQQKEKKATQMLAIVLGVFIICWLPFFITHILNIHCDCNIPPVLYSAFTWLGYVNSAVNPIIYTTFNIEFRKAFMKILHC

`COC(=O)C(NC(=O)N[C@H]1CC[C@H](CCN2CCN(c3cccc(Cl)c3Cl)CC2)CC1)C(C)C` (relative stereo) [Compound 29, trans-2-[3-(4-{2-[4-(2,3-Dichloro-phenyl)-piperazin-1-yl]-ethyl}-cyclohexyl)-ureido]-3-methyl-butyric acid methyl ester]: the IC50 in data set [1] is 1 to 10 nM; in data set [2] it was over 200 nM.
As usually defined, the melting point is the temperature of the solid-liquid transition. With `CCNC(=O)N[C@H]1CC[C@H](CCN2CCN(c3cccc(Cl)c3Cl)CC2)CC1` [Compound 2, Trans-1-{4-[2-[4-(2,3-dichlorophenyl)-piperazin-1-yl]-ethyl]-cyclohexyl}-3-ethyl-urea], the melting point was 235 to 238 °C. Besides, the IC50 in data set [1] was under 1 nM. Further, the IC50 in data set [2] was over 200 nM.
As for `CCCNC(=O)N[C@H]1CC[C@H](CCN2CCN(c3cccc(Cl)c3Cl)CC2)CC1` [Compound 4, trans-1-{4-[2-[4-(2,3-dichlorophenyl)-piperazin-1-yl]-ethyl]-cyclohexyl}-3-propyl-urea], the melting point was 218 to 220 °C. Moreover, the IC50 in data set [1] was under 1 nM. Besides, the IC50 in data set [2] was over 200 nM. For the same molecule, the IC50 in data set [3] is 10 to 50 nM.
The matching figures for `CC(C)NC(=O)N[C@H]1CC[C@H](CCN2CCN(c3cccc(Cl)c3Cl)CC2)CC1` [Compound 5, trans-1-{4-[2-[4-(2,3-dichlorophenyl)-piperazin-1-yl]-ethyl]-cyclohexyl}-3-isopropyl-urea]: 227 to 230 °C, under 1 nM, over 200 nM and 10 to 50 nM.
`CCNC(=O)N[C@H]1CC[C@H](CCN2CCCN(c3cccc(Cl)c3Cl)CC2)CC1` [Compound 6, trans-1-{4-[2-[4-(2,3-dichlorophenyl)-hexahydro[1,4]diazepin-1-yl]-ethyl]-cyclohexyl}-3-ethyl-urea] returned a melting point of 115 to 118 °C. The IC50 in data set [1] was under 1 nM. Besides, the IC50 in data set [2] is over 200 nM. Further, the IC50 in data set [3] fell in the range of 10 to 50 nM.
`O=C(N[C@H]1CC[C@H](CCN2CCCN(c3cccc(Cl)c3Cl)CC2)CC1)N1CCCC1` [Compound 9, trans-N-{4-[2-[4-(2,3-dichlorophenyl)-hexahydro[1,4]diazepin-1-yl]-ethyl]-cyclohexyl}-pyrrolidine-1-carboxamide]: the IC50 in data set [1] is under 1 nM; in data set [2], over 200 nM; in data set [3], 1 to 10 nM.
As to `CCN(CC)C(=O)N[C@H]1CC[C@H](CCN2CCN(c3cccc(Cl)c3Cl)CC2)CC1` [Compound 10, trans-1-{4-[2-[4-(2,3-dichlorophenyl)-piperazin-1-yl]-ethyl]-cyclohexyl}-3,3-diethyl-urea], the melting point was in the range of 171 to 173 °C.
`CCN(C)C(=O)N[C@H]1CC[C@H](CCN2CCN(c3cccc(Cl)c3Cl)CC2)CC1` [Compound 11, trans-1-{4-[2-[4-(2,3-dichlorophenyl)-piperazin-1-yl]-ethyl]-cyclohexyl}-3-ethyl-3-methyl-urea]: the melting point lay within 195 to 198 °C.
The same measure, in the same setting: then `O=C(N[C@H]1CC[C@H](CCN2CCN(c3cccc(Cl)c3Cl)CC2)CC1)N1CCNCC1` [Compound 14, trans-N-{4-[2-[4-(2,3-dichlorophenyl)-piperazin-1-yl]-ethyl]-cyclohexyl}-piperazine-1-carboxamide], with 293 to 296 °C.
On to `CN1CCN(C(=O)N[C@H]2CC[C@H](CCN3CCN(c4cccc(Cl)c4Cl)CC3)CC2)CC1` [Compound 15, trans-N-{4-[2-[4-(2,3-dichlorophenyl)-piperazin-1-yl]-ethyl]-cyclohexyl}-4-methyl-piperazine-1-carboxamide], for which the melting point was 166 to 168 °C.
For the molecule `O=C(N[C@H]1CC[C@H](CCN2CCN(c3cccc(Cl)c3Cl)CC2)CC1)N1CCOCC1` [Compound 16, trans-N-{4-[2-[4-(2,3-dichlorophenyl)-piperazin-1-yl]-ethyl]-cyclohexyl}-morpholine-4-carboxamide], the melting point lay in the range of 201 to 203 °C. The IC50 in data set [1] is under 1 nM. The IC50 in data set [2] is over 200 nM.
In turn, `O=C(N[C@H]1CC[C@H](CCN2CCN(c3cccc(Cl)c3Cl)CC2)CC1)N1CCCCC1` [Compound 17, trans-N-{4-[2-[4-(2,3-dichlorophenyl)-piperazin-1-yl]-ethyl]-cyclohexyl}-piperidine-1-carboxamide] displayed a melting point of 188 to 190 °C.
In the case of `O=C(N[C@H]1CC[C@H](CCN2CCN(c3cccc(Cl)c3Cl)CC2)CC1)N1CCC(O)CC1` [Compound 18, trans-N-{4-[2-[4-(2,3-dichlorophenyl)-piperazin-1-yl]-ethyl]-cyclohexyl}-4-hydroxy-piperidine-1-carboxamide], the melting point is 178 to 180 °C.
With `C=CCNC(=O)N[C@H]1CC[C@H](CCN2CCN(c3cccc(Cl)c3Cl)CC2)CC1` [Compound 21, trans-1-Allyl-3-(4-{2-[4-(2,3-dichloro-phenyl)-piperazin-1-yl]-ethyl}-cyclohexyl)-urea], the IC50 in data set [1] is under 1 nM; in data set [2], over 200 nM; in data set [3], 10 to 50 nM.
Regarding `CCCCNC(=O)N[C@H]1CC[C@H](CCN2CCN(c3cccc(Cl)c3Cl)CC2)CC1` [Compound 24, trans-1-Butyl-3-(4-{2-[4-(2,3-dichloro-phenyl)-piperazin-1-yl]-ethyl}-cyclohexyl)-urea], the IC50 in data set [1] was under 1 nM; in data set [2], over 200 nM; in data set [3], 10 to 50 nM.
On to `N#Cc1cccc(NC(=O)N[C@H]2CC[C@H](CCN3CCN(c4cccc(Cl)c4Cl)CC3)CC2)c1` [Compound 31, trans-1-(3-Cyano-phenyl)-3-(4-{2-[4-(2,3-dichloro-phenyl)-piperazin-1-yl]-ethyl}-cyclohexyl)-urea], for which the results for the IC50 in data set [1] and in data set [2] were under 1 nM and over 200 nM, respectively.
In the case of `COc1cc(NC(=O)N[C@H]2CC[C@H](CCN3CCN(c4cccc(Cl)c4Cl)CC3)CC2)cc(OC)c1OC` [Compound 32, trans-1-(4-{2-[4-(2,3-Dichloro-phenyl)-piperazin-1-yl]-ethyl}cyclohexyl)-3-(3,4,5-trimethoxy-phenyl)-urea], the IC50 in data set [1] was under 1 nM; in data set [2], over 200 nM; in data set [3], 10 to 50 nM.
For `O=C(NC1CCCCC1)N[C@H]1CC[C@H](CCN2CCN(c3cccc(Cl)c3Cl)CC2)CC1` [Compound 33, trans-1-Cyclohexyl-3-(4-{2-[4-(2,3-dichloro-phenyl)-piperazin-1-yl]-ethyl}-cyclohexyl)-urea], the values for the IC50 in data set [1] and in data set [2] were under 1 nM and over 200 nM, respectively.
As for `CC(C)(C)NC(=S)N[C@H]1CC[C@H](CCN2CCN(c3cccc(Cl)c3Cl)CC2)CC1` [Compound 38, trans-1-tert-Butyl-3-(4-{2-[4-(2,3-dichloro-phenyl)-piperazin-1-yl]-ethyl}-cyclohexyl)-thiourea], the IC50 was 1 to 10 nM in data set [1], over 200 nM in data set [2] and 10 to 50 nM in data set [3].
In the case of `CCCNC(=S)N[C@H]1CC[C@H](CCN2CCN(c3cccc(Cl)c3Cl)CC2)CC1` [Compound 42, trans-1-(4-{2-[4-(2,3-Dichloro-phenyl)-piperazin-1-yl]-ethyl}-cyclohexyl)-3-propyl-thiourea], the IC50 in data set [1] is under 1 nM; in data set [2], over 200 nM; in data set [3] it was 10 to 50 nM.
In the same order, the values of `CCOC(=O)CNC(=S)N[C@H]1CC[C@H](CCN2CCN(c3cccc(Cl)c3Cl)CC2)CC1` [Compound 44, trans-[3-(4-{2-[4-(2,3-Dichloro-phenyl)-piperazin-1-yl]-ethyl}-cyclohexyl)-thioureido]-acetic acid ethyl ester] are under 1 nM, over 200 nM and 10 to 50 nM.
As for `CCNC(=S)N[C@H]1CC[C@H](CCN2CCN(c3cccc(Cl)c3Cl)CC2)CC1` [Compound 45, trans-1-(4-{2-[4-(2,3-Dichloro-phenyl)-piperazin-1-yl]-ethyl}-cyclohexyl)-3-ethyl-thiourea], the IC50 in data set [1] was under 1 nM; in data set [2], over 200 nM; in data set [3] it was 10 to 50 nM.
On to `CC(C)(C)NC(=O)N[C@H]1CC[C@H](CCN2CCN(c3cccc(Cl)c3Cl)CC2)CC1` [Compound 47, trans-1-tert-Butyl-3-(4-{2-[4-(2,3-dichloro-phenyl)-piperazin-1-yl]-ethyl}-cyclohexyl)-urea], for which the values for the IC50 in data set [1] and in data set [2] were under 1 nM and over 200 nM, respectively.
Take `O=C(Nc1ccccc1)N[C@H]1CC[C@H](CCN2CCN(c3cccc(Cl)c3Cl)CC2)CC1` [Compound 48, trans-1-(4-{2-[4-(2,3-Dichloro-phenyl)-piperazin-1-yl]-ethyl}-cyclohexyl)-3-phenyl-urea]: the IC50 in data set [1] was under 1 nM; in data set [2] it was over 200 nM; in data set [3], 10 to 50 nM.
In the same order, the values of `O=C(NCc1ccccc1)N[C@H]1CC[C@H](CCN2CCN(c3cccc(Cl)c3Cl)CC2)CC1` [Compound 49, trans-1-Benzyl-3-(4-{2-[4-(2,3-dichloro-phenyl)-piperazin-1-yl]-ethyl}-cyclohexyl)-urea] are under 1 nM, over 200 nM and 50 to 200 nM.
On to `COc1ccc(NC(=O)N[C@H]2CC[C@H](CCN3CCN(c4cccc(Cl)c4Cl)CC3)CC2)cc1` [Compound 50, trans-1-(4-{2-[4-(2,3-Dichloro-phenyl)-piperazin-1-yl]-ethyl}-cyclohexyl)-3-(4-methoxy-phenyl)-urea], for which the IC50 in data set [1] is under 1 nM; in data set [2] it was over 200 nM; in data set [3], 50 to 200 nM.
On to `CCOC(=O)CNC(=O)N[C@H]1CC[C@H](CCN2CCN(c3cccc(Cl)c3Cl)CC2)CC1` [Compound 51, trans-[3-(4-{2-[4-(2,3-Dichloro-phenyl)-piperazin-1-yl]-ethyl}-cyclohexyl)-ureido]-acetic acid ethyl ester], for which the IC50 in data set [1] was under 1 nM; in data set [2], over 200 nM; in data set [3], 10 to 50 nM.
